Measurements from patent US20150376196A1, “4-SUBSTITUTED PYRROLO- AND PYRAZOLO-DIAZEPINES” (BAYER PHARMA AKTIENGESELLSCHAFT, priority 2013, published 2015).
Where two headings read alike, the source gives them in different places.

Legend:
BRD4 (BD1) = target: T1, BRD4 (BD1) (Homo sapiens, UniProt O60885); assay: Binding assay BRD4/acetylated peptide H4 (TR-FRET protein-protein interaction assay)
T1 construct: amino acids 67-152, longer constructs also being possible, preferably amino acids 44-168; made in house; host or cells: E. coli
Excerpt: To assess the BRD4 binding strength of the substances described in this application, the ability thereof to inhibit the interaction between BRD4 (BD1) and acetylated histone H4 in a dose-dependent manner was quantified.
For this purpose, a time-resolved fluorescence resonance energy transfer (TR-FRET) assay was used, which measures the binding between N-terminally His6-tagged BRD4 (BD1) (amino acids 67-152, longer constructs also being possible, preferably amino acids 44-168) and a synthetic acetylated histone H4 (Ac-H4) peptide with sequence GRGK(Ac)GGK(Ac)GLGK(Ac)GGAK(Ac)RHGSGSK-biotin. The recombinant BRD4 protein produced in-house according to Filippakopoulos et al., Nature, 2010, 468:1119-1123 was expressed in E. coli and purified by means of (Ni-NTA) affinity and (Sephadex G-75) size exclusion chromatography. The Ac-H4 peptide can be purchased, for example, from Biosyntan (Berlin, Germany).
In the assay, typically 11 different concentrations of each substance (0.1 nM, 0.33 nM, 1.1 nM, 3.8 nM, 13 nM, 44 nM, 0.15 μM, 0.51 μM, 1.7 μM, 5.9 μM and 20 μM) were analysed as duplicates on the same microtitre plate. For this purpose, 100-fold concentrated solutions in DMSO were prepared by serial dilutions (1:3.4) of a 2 mM stock solution into a clear, 384-well microtitre plate (Greiner Bio-One, Frickenhausen, Germany). From this, 50 nl were transferred into a black test plate (Greiner Bio-One, Frickenhausen, Germany). The test was started by the addition of 2 μl of a 2.5-fold concentrated BRD4 solution (final concentration typically 10 nM in the 5 μl of reaction volume) in aqueous assay buffer [50 mM HEPES pH 7.5, 50 mM sodium chloride (NaCl), 0.25 mM CHAPS and 0.05% serum albumin (BSA)] to the substances in the test plate. This was followed by a 10-minute incubation step at 22° C. for the pre-equilibration of putative complexes between BRD4 and the substances.
The mixture was then incubated in the dark at 22° C. for one hour and then at 4° C. for at least 3 hours and for no longer than overnight. The formation of BRD4/Ac-H4 complexes was determined by the measurement of the resonance energy transfer from the streptavidin-Eu cryptate to the anti-6His-XL665 antibody present in the reaction. For this purpose, the fluorescence emission was measured at 620 nm and 665 nm after excitation at 330-350 nm in a TR-FRET measuring instrument, for example a Rubystar or Pherastar (both from BMG Lab Technologies, Offenburg, Germany) or a Viewlux (Perkin-Elmer). The ratio of the emissions at 665 nm and at 622 nm was taken as an indicator of the amount of BRD4/Ac-H4 complexes formed.
The data (ratios) obtained were normalized, with 0% inhibition corresponding to the mean from the measurements for a set of controls (typically 32 data points) in which all the reagents were present. In these, in place of test substances, 50 nl of DMSO (100%) were used Inhibition of 100% corresponded to the mean from the measurements for a set of controls (typically 32 data points) in which all the reagents except BRD4 were present. The IC50 was determined by regression analysis based on a 4-parameter equation (minimum, maximum, IC50, Hill; Y=max+(min−max)/(1+(X/IC50)^Hill)).

MOLM-13 cells = assay: Cell proliferation assay (alamarBlue), MOLM-13; assay type: cell-based; conditions: Homo sapiens, Leukaemia, 96 hours, inhibition of cell proliferation
Experimental: (§1) In accordance with the invention, the ability of the substances to inhibit cell proliferation was determined Cell viability was determined by means of the alamarBlue® reagent (Invitrogen) in a Victor X3 Multilabel Reader (Perkin Elmer). The excitation wavelength was 530 nm and the emission wavelength […].
The MOLM-13 cells (DSMZ, ACC 554) were sown at a concentration of 4000 cells/well in 100 μl of growth medium (RPMI1640, 10% FCS) on 96-well microtitre plates.
(§2) The MDA-MB-231 cells (DSMZ, ACC 732) were sown at a concentration of 4000 cells/well in 100 μl of growth medium (DMEM/Ham's F12 medium, 10% FCS) on 96-well microtitre plates. After overnight incubation at 37° C., the fluorescence values (CI values) were determined. Then the plates were treated with various substance dilutions (1E-5 M, 3E-6 M, 1E-6 M, 3E-7 M, 1E-7 M, 3E-8 M, 1E-8 M) and incubated at 37° C. for 72 (MV-4-11, LOX-IMVI cells), 96 (MOLM-13, B16F10, […] cells), 120 (MOLP-8, KMS-12-PE cells) or 168 (LAPC-4 cells) hours. Subsequently, the fluorescence values were determined (CO values). For the data analysis, the CI values were subtracted from the CO values and the results were compared between cells which had been treated with various dilutions of the substance or only with buffer solution. The ICso values (substance concentration needed for 50% inhibition of cell proliferation) were calculated therefrom.
(§3) The substances were tested in the cell lines in Table 1, which represent the indications specified by way of example: […]

B16F10 cells = assay: Cell proliferation assay (alamarBlue), B16F10; assay type: cell-based; conditions: Mus musculus, B16-F10, Melanoma (BRAF wild-type), 96 hours, inhibition of cell proliferation
Experimental: as §1
The B16F10 cells (ATCC, CRL-6475) were sown at a concentration of 300-500 cells/well in 100 μl of growth medium (DMEM with phenol red, 10% FCS) on 96-well microtitre plates.
as §2, §3

MOLP-8 cells = assay: Cell proliferation assay (alamarBlue), MOLP-8; assay type: cell-based; conditions: Homo sapiens, Multiple myeloma, 120 hours, inhibition of cell proliferation
Experimental: as §1
The MOLP-8 cells (DSMZ, ACC 569) were sown at a concentration of 4000 cells/well in 100 μl of growth medium (RPMI1640, 20% FCS) on 96-well microtitre plates.
as §2, §3

LAPC-4 cells = assay: Cell proliferation assay (alamarBlue), LAPC-4; assay type: cell-based; conditions: Homo sapiens, LAPC4, Prostate, 1 nM methyltrienolone, 168 hours, inhibition of cell proliferation
Experimental: as §1
The LAPC-4 cells (ATCC, PTA-1441TM) were sown at a concentration of 4000 cells/well in 100 μl of growth medium (RPMI1640, 2 mM L-glutamine, 10% cFCS) on 96-well microtitre plates. One day later, the LAPC-4 cells were treated with 1 nM methyltrienolone and various substance dilutions.
as §2, §3

MDA-MB-231 cells = assay: Cell proliferation assay (alamarBlue), MDA-MB-231; assay type: cell-based; conditions: Homo sapiens, Breast, 96 hours, inhibition of cell proliferation
Experimental: as §1, §2, §3

[1] = BRD4 (BD1) / acetylated histone H4 peptide, TR-FRET, read-out: IC50 (BRD4)

SMILES	IC50 (BRD4 (BD1); [1]) [µM]	IC50 (MOLM-13 cells) [µM]	IC50 (B16F10 cells) [µM]	IC50 (MOLP-8 cells) [µM]	IC50 (LAPC-4 cells) [µM]	IC50 (BRD4 (BD1)) [µM]	IC50 (MDA-MB-231 cells) [µM]
Cc1c2c(cn1C)-n1c(C)nnc1[C@H](CC(=O)N1CC(F)C1)N=C2c1ccc(Cl)cc1 [Example 5, (−)-2-[(4S)-6-(4-Chlorophenyl)-1,7,8-trimethyl-4,8-dihydropyrrolo[3,4f][1,2,4]triazolo [4,3-a][1,4]diazepin-4-yl]-1-(3-fluoroazetidin-1-yl)ethan-1-one]	0.07	0.53	0.58	0.37	0.37		
Cc1c2c(cn1C)-n1c(C)nnc1[C@H](CC(=O)Nc1ccc3c(c1)CC(=O)N3)N=C2c1ccc(Cl)cc1 [Example 13, 2-[(4S)-6-(4-Chlorophenyl)-1,7,8-trimethyl-4,8-dihydropyrrolo[3,4-f][1,2,4]triazolo[4,3-a][1,4]diazepin-4-yl]-N-(2-oxo-2,3-dihydro-1H-indol-5-yl)acetamide]	0.04	0.19	0.33	0.22	0.09		
Cc1c2c(cn1C)-n1c(C)nnc1[C@H](Cc1nc(C(C)C)no1)N=C2c1ccc(Cl)cc1 [Example 30, (4S)-6-(4-Chlorophenyl)-1,7,8-trimethyl-4-{[3-(propan-2-yl)-1,2,4-oxadiazol-5-yl]methyl}-4,8-dihydropyrrolo[3,4-f][1,2,4]triazolo[4,3-a][1,4]diazepine]	0.03	0.07		0.05			
Cc1nnc2n1-c1cn(C)nc1C(c1ccc(Cl)cc1)=NC2CC(=O)N1CCS(=O)(=O)CC1 (centres unmarked) [Example 14, 2-[6-(4-Chlorophenyl)-1,8-dimethyl-4,8-dihydropyrazolo[3,4-f][1,2,4]triazolo[4,3-a][1,4]diazepin-4-yl]-1-(1,1-dioxidothiomorpholin-4-yl)ethanone]	0.64	3.46		4			
Cc1noc(C[C@@H]2N=C(c3ccc(Cl)cc3)c3c(cn(C)c3C)-n3c(C)nnc32)n1 [Example 26, (4S)-6-(4-Chlorophenyl)-1,7,8-trimethyl-4-[(3-methyl-1,2,4-oxadiazol-5-yl)methyl]-4,8-dihydropyrrolo[3,4-f][1,2,4]triazolo[4,3-a][1,4]diazepine]	0.02	0.08		0.05			
COC(=O)C[C@@H]1N=C(c2ccccc2)c2c(cn(C)c2C)-n2c(C)nnc21 [Example 2, 2-(4S)-(1,7,8-Trimethyl-6-phenyl-4,8-dihydropyrrolo[3,4f][1,2,4]triazolo[4,3-a][1,4]diazepin-4-yl)acetic acid methyl ester]		0.33	0.08		0.03	0.01	0.09
COC(=O)C[C@@H]1N=C(c2ccc(Cl)cc2)c2nn(C)cc2-n2c(C)nnc21 [Example 6, 2-[(4S)-6-(4-Chlorophenyl)-1,8-dimethyl-4,8-dihydropyrazolo[3,4-f][1,2,4]triazolo[4,3-a][1,4]diazepin-4-yl]acetic acid methyl ester]		0.45	0.55	0.45	0.25	0.14	
Cc1c2c(cn1C)-n1c(C)nnc1[C@H](CC(=O)N1CCS(=O)(=O)CC1)N=C2c1ccc(Cl)cc1 [Example 8, (−)-2-[(4S)-6-(4-Chlorophenyl)-1,7,8-trimethyl-4,8-dihydropyrrolo[3,4f][1,2,4]triazolo[4,3-a][1,4]diazepin-4-yl]-1-(1,1-dioxidothiomorpholino)ethan-1-one]	0.1	0.56	0.67	0.44	0.36		
Cc1c2c(cn1C)-n1c(C)nnc1[C@H](CC(=O)OC(C)(C)C)N=C2c1ccc(Cl)cc1 [Example 3]	0.03	0.21	0.19	0.19	0.1		
COC(=O)C[C@@H]1N=C(c2ccc(Cl)cc2)c2c(cnn2C)-n2c(C)nnc21 [Example 7, 2-[(4S)-6-(4-Chlorophenyl)-1,7-dimethyl-4,7-dihydropyrazolo[3,4-f][1,2,4]triazolo[4,3-a][1,4]diazepin-4-yl]acetic acid methyl ester]		0.74		0.45		0.23	
Cc1c2c(cn1C)-n1c(C)nnc1[C@H](CC(=O)N1CCC(=O)C1)N=C2c1ccc(Cl)cc1 [Example 12]	0.11	0.48	0.6		0.22		
COC(=O)C[C@@H]1N=C(c2ccc(Cl)cc2)c2c(cn(C)c2C)-n2c(C)nnc21 [Example 1]		0.13	0.08	0.05	0.05	0.01	0.09
Cc1c2c(cn1C)-n1c(C)nnc1[C@H](CC(=O)N(C)CC1(C)COC1)N=C2c1ccc(Cl)cc1 [Example 11, (−)-2-[(4S)-6-(4-Chlorophenyl)-1,7,8-trimethyl-4,8-dihydropyrrolo[3,4f][1,2,4]triazolo[4,3-a][1,4]diazepin-4-yl]-N-methyl-N-[(3-methyloxetan-3-yl)methyl]acetamide]	0.22	1.99	1.4		0.81		
CCc1noc(C[C@@H]2N=C(c3ccc(Cl)cc3)c3c(cn(C)c3C)-n3c(C)nnc32)n1 [Example 28, (4S)-6-(4-Chlorophenyl)-1,7,8-trimethyl-4-[(3-ethyl-1,2,4-oxadiazol-5-yl)methyl]-4,8-dihydropyrrolo[3,4-f][1,2,4]triazolo[4,3-a][1,4]diazepine]	0.03	0.07		0.04			
